According to US9936724B2, “Sweetener compositions” (Givaudan, S.A., priority 2014, dated 2018):
Peptide text beside a SMILES is read from it.

Tests used:
[1] = Solubility in water at room temperature; assay type: physicochemical; details: for solubility: in water at room temperature; for solubility in water, comparison in words: compared with other dihydrochalcones / with 3-phenyl-1-(2,4,6-trimethoxyphenyl)propan-1-one
[2] = Masking of off-notes of high-intensity sweeteners (comparison of dihydrochalcones); details: used at soluble concentrations
[3] = relative to sucrose; cited from earlier work

solubility [1]	Compound	solubility in water, comparison in words [1]	masking properties / masking effect [2]	times sweeter than sucrose [3]
greater than 30 ppm	COc1cc(OC)c(C(=O)CCc2ccccc2)c(OC)c1 [3-phenyl-1-(2,4,6-trimethoxy-phenyl)propan-1-one]	much higher solubility in water than other dihydrochalcones	particularly good masking properties	
	OC[C@H]1O[C@H](O[C@]2(CCl)O[C@H](CCl)[C@@H](O)[C@@H]2O)[C@H](O)[C@@H](O)[C@H]1Cl [sucralose]			about 600 times
below 5 ppm	COc1ccc(CCC(=O)c2c(O)cc(OC)cc2OC)cc1 [1-(2-hydroxy-4,6-dimethoxyphenyl)-3-(4-methoxyphenyl)propan-1-one]		significantly lower masking effect	
	O=S(=O)([O-])NC1CCCCC1.[Na+] [sodium cyclamate]			about 30 times
	COC(=O)[C@H](Cc1ccccc1)NC(=O)[C@@H](N)CC(=O)O [Aspartame] (H-Asp-Phe-OMe)			160-200 times
	O=C(CCc1ccc(O)cc1)c1c(O)cc(O)cc1O [phloretin, 3-(4-hydroxyphenyl)-1-(2,4,6-trihydroxyphenyl)propan-1-one]	soluble to a similar extent	did not provide masking properties	
	thaumatin			about 2 000 times
